Assay results as given in patent US5089623A, “Certain imidate insecticides” (Imperial Chemical Industries Plc, priority 1990, dated 1992).

Legend:
Assay type in all cases: in vivo
[1] = system: Cabbage Looper [Trichoplusia ni (Hubner)]; test: Cabbage looper test (CL); conditions: second-instar larvae, 3-5 days, percent in solution
[2] = system: Tobacco Budworm [Heliothis virescens (Fabricius)] eggs; test: Tobacco budworm egg test (TBW-E); conditions: percent in solution
Excerpt: Eggs: Paper towel patches of 2-day old eggs of the tobacco budworm were dipped in acetone solutions of the test compound and placed in petri dishes containing a portion of larval rearing medium. […] Test concentrations ranged from 0.1% downward.

[3] = system: Housefly [Musca domestica]; test: Housefly insecticidal test (HF); conditions: per 25 female houseflies, 48 hours

SMILES | LC50 CL [1] [%] | LC50 TBW E [2] [%] | LC50 HF [3] [µg]
CC(C)C(=Nc1ccc2c(c1)OCO2)OCc1cccc(Oc2ccccc2F)c1 [Compound 190] | 0.0004 | 0.023 | 7.5
CC(C)(F)C(=Nc1ccc(F)c(F)c1)OCc1cccc(Oc2ccc(F)cc2)c1 [Compound 318] | 0.0007 | > 0.1 | 19
CC(C)C(=Nc1ccc(Br)cc1F)OCc1cccc(Oc2ccccc2)c1 [Compound 79] | 0.003 | 0.05 | 6
CCOc1cccc(N=C(OCc2cccc(Oc3ccccc3)c2)C(C)C)c1 [Compound 171] | 0.01 | > 0.1 | 80
COc1ccc(Oc2cccc(COC(=Nc3ccc(Cl)c(Cl)c3)C(C)C)c2)cc1 [Compound 223] | 0.008 | > 0.1 | 43
CCC(=Nc1cccc(Cl)c1Cl)OCc1cccc(Oc2ccccc2)c1 [Compound 28] | 0.009 | > 0.1 | > 100
COc1ccc(N=C(OCc2cccc(Oc3ccccc3)c2)C(C)C)c(C)c1 [Compound 149] | 0.007 | 0.05 | 17
Cc1cc(N=C(OCc2cccc(Oc3ccc(F)cc3)c2)C(C)C)ccc1F [Compound 236] | 0.0018 | 0.06 | 7
Clc1cccc(N=C(OCc2cccc(Oc3ccccc3)c2)C2CC2)c1 [Compound 24] | 0.005 | 0.1 | 25
CC(C)C(=Nc1ccc(Cl)c(C(F)(F)F)c1)OCc1cccc(Oc2cccc(F)c2)c1 [Compound 195] | 0.002 | > 0.1 | > 100
CC(C)C(=Nc1ccc2c(c1)OC(C)(C)O2)OCc1cccc(Oc2ccccc2)c1 [Compound 182] | 0.0006 | 0.04 | 28
CC(C)C(=Nc1cccc(OC(F)(F)C(F)F)c1)OCc1cccc(Oc2ccc(F)cc2)c1 [Compound 288] | 0.0015 | > 0.1 | > 100
CC(C)C(=Nc1ccc(F)c(Br)c1)OCc1cccc(Oc2ccc(Br)cc2)c1 [Compound 276] | 0.002 | 0.1 | 39
Cc1ccc(N=C(OCc2cccc(Oc3ccccc3)c2)C(C)(C)C)cc1C [Compound 167] | 0.02 | > 0.1 | > 100
CCC(C)C(=Nc1ccc(Cl)cc1)OCc1cccc(Oc2ccccc2)c1 (stereo not drawn) [Compound 26] | 0.007 | > 0.1 | > 100
CC(C)(C)C(=Nc1ccc(F)cc1)OCc1cccc(Oc2ccccc2)c1 [Compound 48] | 0.03 | > 0.05 | > 100
Cc1ccc(Oc2cccc(COC(=Nc3cccc(C(F)(F)F)c3)C(C)C)n2)cc1 [Compound 495] | 0.012 | 0.1 | > 100
CSc1cccc(N=C(OCc2cccc(Oc3ccccc3)c2)C(C)C)c1 [Compound 166] | 0.009 | > 0.1 | 22
CCCCc1ccc(N=C(OCc2cccc(Oc3ccccc3)c2)C(C)C)cc1 [Compound 152] | 0.009 | > 0.1 | > 100
CC(C)C(=Nc1cccc(C#N)c1)OCc1cccc(Oc2ccccc2)c1 [Compound 126] | 0.08 | > 0.1 | > 100
CC(C)C(=Nc1ccc2c(c1)OCO2)OCc1cc(Oc2ccc(F)cc2)ccc1Cl [Compound 274] | 0.1 | > 0.1 | > 100
CC(C)C(=Nc1ccc(F)c(Cl)c1)OCc1ccc(F)c(Br)c1 [Compound 473] | 0.025 | > 0.1 | > 100
CC(C)C(=Nc1cccc(C(F)(F)F)c1)OCc1cccc(Oc2ccc(Br)cc2)n1 [Compound 493] | 0.0008 | 0.05 | 36
Cc1cc(N=C(OCc2cccc(Oc3ccccc3)c2)C(C)C)ccc1F [Compound 87] | 0.004 | 0.03 | 5
CC(C)C(=Nc1ccc(C#N)cc1)OCc1cccc(Oc2cccc(Cl)c2)c1 [Compound 208] | 0.0035 | > 0.1 | 27
Cc1ccc(Oc2cccc(COC(=Nc3ccc(F)cc3)C(C)C)c2)cc1 [Compound 231] | 0.003 | > 0.1 | > 100
Cc1c(COC(=Nc2ccc(Cl)cc2)C(C)C)cccc1-c1ccccc1 [Compound 455] | 0.0025 | > 0.1 | > 100

SMILES | LC50 CL [1] [%] | LC50 TBW E [2] [%] | LC50 HF [3] [µg]
CCC(CC)C(=Nc1ccc(C(C)C)cc1)OCc1cccc(Oc2ccccc2)c1 [Compound 321] | 0.05 | > 0.1 | > 100
CC(C)C(=Nc1ccc(C(F)(F)F)cc1)OCc1ccc(F)c(Oc2ccc(F)cc2)c1 [Compound 287] | 0.0025 | > 0.1 | > 100
CC(C)C(=Nc1ccc(F)c(Cl)c1)OC(C)c1cccc(Oc2ccccc2)n1 (stereo not drawn) [Compound 498] | 0.002 | > 0.1 | 49
COc1ccc(Oc2cccc(COC(=Nc3ccc(F)c(Cl)c3)C(C)C)c2)cc1 [Compound 221] | 0.0027 | > 0.1 | 62
CC(C)C(=Nc1ccc(F)c(F)c1)OCc1cccc(Oc2ccc(F)cc2F)c1 [Compound 214] | 0.0003 | 0.04 | 19
Cc1ccc(N=C(OCc2cccc(Oc3ccccc3)c2)C(C)C)cc1C [Compound 158] | 0.003 | 0.1 | 9
C=CCOc1cccc(COC(=Nc2ccc(Cl)c(Cl)c2)C(C)C)c1 [Compound 481] | 0.015 | > 0.1 | > 100
CC(C)C(=Nc1ccc(Br)c(Br)c1)OCc1cccc(Oc2ccc(F)cc2)c1 [Compound 251] | 0.0005 | 0.06 | 25
CCC(=Nc1ccc(F)c(Cl)c1)OCc1cccc(Oc2ccc(F)cc2)c1 [Compound 115] | 0.0012 | 0.075 | 10
CC(C)C(=Nc1cccc(I)c1)OCc1cccc(Oc2ccccc2)c1 [Compound 136] | 0.004 | 0.08 | 9
CCC(=Nc1ccc(Cl)c(Cl)c1)OCc1cccc(Oc2ccccc2)c1 [Compound 36] | 0.024 | > 0.01 | 20
CCC(CC)C(=Nc1cccc(C(F)(F)F)c1)OCc1cccc(Oc2ccc(F)cc2)c1 [Compound 291] | 0.004 | > 0.1 | > 100
COc1cccc(N=C(OCc2cccc(Oc3ccc(F)cc3)c2)C(C)C)c1 [Compound 201] | 0.004 | > 0.1 | 15
CC(C)C(=Nc1ccc(C(C)(C)C)cc1)OCc1cccc(Oc2ccccc2)n1 [Compound 496] | 0.006 | > 0.1 | > 100
FC(F)(F)c1cccc(N=C(OCc2cccc(Oc3ccccc3)c2)C2CC2)c1 [Compound 86] | 0.013 | > 0.01 | 65
CC(C)C(=Nc1cccc(Br)c1)OCc1cccc(Oc2ccc(F)cc2)c1 [Compound 229] | 0.0005 | > 0.1 | 20
CCC(=Nc1ccc(F)cc1F)OCc1cccc(Oc2ccccc2)c1 [Compound 59] | 0.02 | > 0.1 | 25
CC(C)C(=Nc1ccc(F)cc1)OCc1cccc(Oc2ccc(F)cc2F)c1 [Compound 206] | 0.0017 | > 0.1 | 50
CC(C)C(=Nc1ccc2c(c1)OCO2)OCc1ccc(F)c(Oc2ccc(Cl)cc2)c1 [Compound 313] | 0.00025 | 0.013 | > 100
CC(C)C(=Nc1cccc(SC(F)(F)F)c1)OCc1cccc(Oc2ccc(F)cc2)c1 [Compound 272] | 0.0024 | > 0.1 | > 100
CCC(C)C(=Nc1ccc(F)c(Cl)c1)OCc1ccc(F)c(Oc2ccccc2)c1 (stereo not drawn) [Compound 261] | 0.001 | 0.05 | 24
CC(C)C(=Nc1ccc(Cl)cc1)OCc1coc(Cc2ccccc2)c1 [Compound 484] | 0.003 | > 0.1 | 16
CC(Br)C(=Nc1ccc(F)c(Cl)c1)OCc1cccc(Oc2ccccc2)c1 (stereo not drawn) [Compound 118] | 0.0013 | > 0.1 | 18
Cc1ccc(Cl)c(N=C(OCc2cccc(Oc3ccccc3)c2)C(C)C)c1 [Compound 93] | 0.005 | > 0.1 | 64
CCCC(=Nc1ccc(OC)cc1)OCc1cccc(Oc2ccccc2)c1 [Compound 184] | 0.024 | > 0.1 | 61
CCOC(=O)c1ccc(N=C(OCc2cccc(Oc3ccccc3)c2)C(C)C)cc1Cl [Compound 104] | 0.004 | > 0.1 | > 100
